Measured values from patent publication US4681899A, “Method of preventing the growth of malaria parasites in erythrocytes” (priority 1985, dated 1987).

Tests used:
man = settings: adults; mixture of l-form and d-form; cited from earlier work
sickle red cells = settings: studies on sickle red cells; cited from earlier work
p. Falciparum = experiment: in vivo efficacy in mice infected by p. Falciparum (FIG. 3); settings: 3 mg/kg/day orally
mice [1] = experiment: side effects in mice at 3 mg/kg/day orally; assay type: in vivo
Protocol: (§1) A control and a drug concentration (approximately 3 mg/kg body weight/day) were provided orally via drinking water. Water containing drugs were prepared daily. Water intake were monitored daily to insure proper dosage and hydration levels. A commercial food pellet were provided ad libitum.
Ohnishi tested an in vivo efficacy of these drugs using mice infected by p. Falciparum.

beta-adrenergic = settings: cited from earlier work
p. Vinckei = experiment: in vivo efficacy in mice infected with p. Vinckei (FIG. 4); settings: oral, 3 mg/kg body weight
Protocol: Mice: Four to eight-week-old BALB/C male and female mice from a breeding colony were used.
Parasite: Stabilates of p. Vinchei TCC 30091) and p. Falciparum (FCR-3 knobless) were used.
In vivo method: The tail vein was nicked and a blood droplet was smeared.
The smears were stained with Giemsa, infected erythrocytes (which contain trophozoite and schizont stage parasites) were counted and percent parasitemia estimated.
Approximately 10^5 p. Vinchei parasites were injected intraperitoneally (I.P.) into a donor mouse and at the time of ascending parasitemia, the infected mouse was exsanguinated and red blood cells are prepared for in vivo experimentation.
as §1
To each mouse, 10^6 parasitized red blood cells were injected I.P., and daily blood samples were collected from the tail vein to monitor the levels of parasitemia.
Five mice were used for each group tested.
During the experimentation, we monitored both the percent parasitemia and percent survival rate of each experimental group.
Using p. Vinckei and a mice model, Ohnishi has also tested the efficacy of W-7.

mice [2] = settings: oral administration; cited from earlier work

CC(C)NCC(O)COc1cccc2ccccc12 (stereo not drawn) [propranolol]
usual effective dose in man as an anti-hypertensive drug (daily) (man): 160-480 mg daily
usual effective dose in man as an anti-hypertensive drug (per body weight) (man): 3-8 mg/kg body weight/day
effect on red cell metabolism and cell sickling (sickle red cells): altered the red cell metabolism and thus affected the cell sickling

CC(C)NC[C@@H](O)COc1cccc2ccccc12 [d-propranolol]
inhibition of the growth of parasites in mice (p. Falciparum): effectively inhibited the growth of parasites in mice
side effect (mice [1]): no side effect was observed
beta-adrenergic blocker activity of the form (beta-adrenergic): inactive beta-adrenergic blocker

CC(C)NC[C@H](O)COc1cccc2ccccc12 [l-propranolol]
inhibition of the growth of parasites in mice (p. Falciparum): effectively inhibited the growth of parasites in mice
side effect (mice [1]): no side effect was observed
beta-adrenergic blocker activity of the form (beta-adrenergic): active beta-adrenergic blocker

NCCCCCCNS(=O)(=O)c1cccc2c(Cl)cccc12 [W-7]
life span after infection (p. Vinckei): extended their life span after infection
suppression of the growth of parasites (p. Vinckei): suppressed the growth of parasites
effect on red cell metabolism and cell sickling (sickle red cells): altered the red cell metabolism and thus affected the cell sickling
acute LD50 (mice [2]): 75 mg/kg

C=CCc1ccccc1OCC(O)CNC(C)C (stereo not drawn) [alprenolol]
effect on red cell metabolism and cell sickling (sickle red cells): altered the red cell metabolism and thus affected the cell sickling

C=CCc1ccccc1OC[C@@H](O)CNC(C)C [l-alprenolol]
acute LD50 (mice [2]): 278 mg/kg
